“And” between values parts separate entries of the source, which are not always exact repeats. Equal entries are not always repeated. Where two headings read alike, the source gives them in different places.
Assays:
[1] = In vitro plasma protein binding, monkey; format: in vitro ADME
Excerpt: CX-8998 distributes readily to the brain in rats and to brain and cerebral spinal fluid (CSF) in dogs.

[2] = Pharmacokinetics in dogs; format: in vivo, dog
Procedure: (§2) The validity and reproducibility of the assays were determined, and the precision and accuracy for calibration standards and quality control samples were examined. […] The analytes were stable in plasma under the storage and assay conditions. […] Assay performances were satisfactory and met acceptance criteria for system performance suitability, quantitation range, calibration linearity, assay accuracy and precision, and assay recovery.

[3] = 4-week oral toxicology in Beagle dogs
[4] = Pharmacokinetics in rats; format: in vivo, rat
Procedure: as §2

[5] = target: T1, Cav3.3 (Homo sapiens, UniProt Q9P0X4); test: Cav3.3 FLIPR calcium influx assay (HEK 293 cells); format: cell-based; details: read-out: IC50
T1 construct: expressed in transfected cells; host or cells: HEK 293

[6] = clinical; details: human, plasma, oral, 8 mg
Excerpt: Subjects will be screened for study eligibility within 28 days before administration of the first dose of study drug. Subjects who meet the study eligibility criteria will be admitted to the clinical research unit in the afternoon of the day before administration of the first dose of study drug (Period 1/Day −1).
Treatments A, B, and C will be separated by a minimum 7-day washout period. […] Administration of Treatment D may be separated from administration of Treatments A, B, and C by approximately 4 weeks to allow for analysis of the bioanalytical samples from the first 3 treatments.

[7] = Phase 1 single-dose pharmacokinetics (PN001, PN002/Part I, PN003, PN005); format: in vivo, human; details: for Cmax / AUC(0-t): male, human, plasma, oral; for AUC(0-t): read-out: AUC0-24
[8] = in vivo; details: rat, po
[9] = system: CYP1A2, CYP3A4, CYP2C8, CYP2C9, CYP2C19, CYP2D6, CYP2B6; test: CYP inhibition in human liver microsomes; format: in vitro ADME
[10] = Simulated Css and total active moiety, 10 mg BID; set-up: species or system human; details: for Css, estimated mean / Steady-state AUC24, estimated mean: CX-8998 10 mg twice daily fasted
[11] = In vitro plasma protein binding, human; format: in vitro ADME
[12] = system: P-glycoprotein; test: P-glycoprotein bidirectional transport; format: in vitro ADME, human, monkey, and rat
Excerpt: (§1) Glucuronide conjugates of the oxygenated metabolites are detected in human, monkey, and dog hepatocyte preparations. […] However, the abundance of CYP3A5, CYP2C19, and CYP2D6 in human liver microsomes is low (2%-5%) relative to the primary contributors, CYP3A4 (˜30%) and CYP2C9 (˜20%). […] Information on reproductive and developmental toxicology was obtained in a 28-day pivotal female fertility study in rats and in preliminary embryo-fetal development studies in rats and rabbits.

[13] = Crossover bioavailability study IR vs MR1 vs MR2 capsules: PK; set-up: AUC72hr: unit not given beside the values; details: for AUC728, Mean / AUC728: single 8 mg dose, fasted; for AUC728, Mean: N=15; for AUC728: individual subjects; for AUC72hr: plasma
[14] = Pharmacokinetics in rhesus monkeys; format: in vivo, rhesus monkey
Procedure: as §2

[15] = target: T2, breast cancer resistance protein (BCRP) (Homo sapiens, UniProt Q9UNQ0); test: BCRP transport; format: in vitro ADME; details: 30 μM
T2 sequence (Q9UNQ0 1-655): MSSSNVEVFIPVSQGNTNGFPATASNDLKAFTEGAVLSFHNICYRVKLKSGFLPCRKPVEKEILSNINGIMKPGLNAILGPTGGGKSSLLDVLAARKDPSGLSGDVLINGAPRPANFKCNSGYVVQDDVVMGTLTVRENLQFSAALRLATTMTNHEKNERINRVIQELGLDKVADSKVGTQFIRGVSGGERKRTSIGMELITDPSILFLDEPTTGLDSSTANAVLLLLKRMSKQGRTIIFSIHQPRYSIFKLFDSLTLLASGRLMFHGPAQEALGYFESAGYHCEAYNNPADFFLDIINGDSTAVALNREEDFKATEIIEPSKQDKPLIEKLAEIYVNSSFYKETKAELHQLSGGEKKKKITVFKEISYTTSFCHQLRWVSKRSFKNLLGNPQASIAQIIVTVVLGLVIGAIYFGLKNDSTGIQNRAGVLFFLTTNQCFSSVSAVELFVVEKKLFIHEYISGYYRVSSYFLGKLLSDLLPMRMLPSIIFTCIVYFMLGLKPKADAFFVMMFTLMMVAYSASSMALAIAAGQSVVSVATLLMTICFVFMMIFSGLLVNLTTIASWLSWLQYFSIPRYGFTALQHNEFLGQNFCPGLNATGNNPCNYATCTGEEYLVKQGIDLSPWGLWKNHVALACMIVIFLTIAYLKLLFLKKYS
Excerpt: as §1

[16] = for Day 90 Free Plasma AUC24 at NOAEL for Dog 90-Day Toxicology: 30 mg/kg/day; for Day 90 Free Plasma AUC24 at NOAEL for Rat 90-Day Toxicology: 300 mg/kg/day
[17] = Beagle dog, 4-week toxicity, oral gavage
[18] = Rat, IV 2 mg/kg, mean of 2 animals
[19] = simulated from CX-8998 10 mg BID
[20] = Monkey, IV 2 mg/kg, mean (SD), 3 animals

T1 sequence (Q9P0X4 whole entry, species assumed): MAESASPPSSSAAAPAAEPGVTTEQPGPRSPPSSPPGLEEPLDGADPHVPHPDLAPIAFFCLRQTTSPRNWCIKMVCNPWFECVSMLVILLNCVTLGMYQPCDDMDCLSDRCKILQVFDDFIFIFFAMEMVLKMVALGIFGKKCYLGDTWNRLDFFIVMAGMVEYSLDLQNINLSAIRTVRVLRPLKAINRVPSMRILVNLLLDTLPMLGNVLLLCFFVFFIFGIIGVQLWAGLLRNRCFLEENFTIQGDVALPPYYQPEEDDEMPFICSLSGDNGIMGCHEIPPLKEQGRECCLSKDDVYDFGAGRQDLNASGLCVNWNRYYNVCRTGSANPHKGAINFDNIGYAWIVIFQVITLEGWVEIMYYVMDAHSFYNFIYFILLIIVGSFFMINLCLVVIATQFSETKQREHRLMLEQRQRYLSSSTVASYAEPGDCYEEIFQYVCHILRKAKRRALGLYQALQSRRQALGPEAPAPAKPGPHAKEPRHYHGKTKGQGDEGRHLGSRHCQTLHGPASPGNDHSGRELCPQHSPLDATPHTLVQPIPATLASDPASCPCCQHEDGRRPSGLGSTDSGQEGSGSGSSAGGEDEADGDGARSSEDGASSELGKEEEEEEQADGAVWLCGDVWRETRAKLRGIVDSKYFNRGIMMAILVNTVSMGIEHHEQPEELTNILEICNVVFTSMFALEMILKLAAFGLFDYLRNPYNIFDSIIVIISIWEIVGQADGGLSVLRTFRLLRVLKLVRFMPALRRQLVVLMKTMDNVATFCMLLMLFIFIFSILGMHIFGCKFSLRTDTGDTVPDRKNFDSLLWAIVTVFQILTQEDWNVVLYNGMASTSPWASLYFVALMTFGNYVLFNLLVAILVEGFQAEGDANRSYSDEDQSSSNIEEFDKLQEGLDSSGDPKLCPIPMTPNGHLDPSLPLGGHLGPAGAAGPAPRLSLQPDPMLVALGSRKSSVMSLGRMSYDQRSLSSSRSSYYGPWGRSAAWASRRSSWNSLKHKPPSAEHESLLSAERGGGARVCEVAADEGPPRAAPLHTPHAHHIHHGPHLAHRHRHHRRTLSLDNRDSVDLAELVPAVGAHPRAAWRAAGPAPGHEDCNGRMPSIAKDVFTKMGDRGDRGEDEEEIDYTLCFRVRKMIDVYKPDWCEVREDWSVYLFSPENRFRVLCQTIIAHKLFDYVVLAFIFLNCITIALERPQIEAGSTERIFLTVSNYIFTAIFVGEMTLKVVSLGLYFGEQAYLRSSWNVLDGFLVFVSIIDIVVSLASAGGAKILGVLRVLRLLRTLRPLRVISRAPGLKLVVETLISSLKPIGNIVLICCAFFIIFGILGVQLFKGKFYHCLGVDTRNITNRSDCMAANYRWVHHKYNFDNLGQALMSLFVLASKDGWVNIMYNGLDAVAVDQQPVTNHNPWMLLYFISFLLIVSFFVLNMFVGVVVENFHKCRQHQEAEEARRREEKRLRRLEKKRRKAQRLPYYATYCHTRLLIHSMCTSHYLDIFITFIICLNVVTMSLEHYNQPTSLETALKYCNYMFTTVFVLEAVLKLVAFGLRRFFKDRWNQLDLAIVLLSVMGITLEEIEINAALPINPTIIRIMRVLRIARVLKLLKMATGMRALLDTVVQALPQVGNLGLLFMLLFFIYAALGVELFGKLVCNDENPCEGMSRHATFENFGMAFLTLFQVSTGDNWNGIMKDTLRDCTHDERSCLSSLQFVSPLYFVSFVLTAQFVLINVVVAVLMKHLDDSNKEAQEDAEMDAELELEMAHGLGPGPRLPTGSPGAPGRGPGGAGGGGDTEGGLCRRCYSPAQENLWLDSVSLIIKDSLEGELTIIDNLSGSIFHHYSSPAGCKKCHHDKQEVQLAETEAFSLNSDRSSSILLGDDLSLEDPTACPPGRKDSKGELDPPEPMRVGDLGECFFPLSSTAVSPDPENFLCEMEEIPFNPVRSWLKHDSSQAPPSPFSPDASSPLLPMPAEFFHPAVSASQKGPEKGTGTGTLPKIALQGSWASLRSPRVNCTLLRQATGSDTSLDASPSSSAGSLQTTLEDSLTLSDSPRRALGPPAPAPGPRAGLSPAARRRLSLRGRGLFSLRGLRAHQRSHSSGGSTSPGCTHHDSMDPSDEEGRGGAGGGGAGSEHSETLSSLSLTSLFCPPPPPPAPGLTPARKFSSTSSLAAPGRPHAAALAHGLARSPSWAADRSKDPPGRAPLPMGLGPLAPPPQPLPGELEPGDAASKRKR

CC(C)c1ccc(CC(=O)N[C@H](C)c2ccc(OCC(F)(F)F)cn2)cc1 [CX-8998]
fraction unbound [1]: ~0.012
t½ ([2]; Dog, IV […], mean (SD), 3 animals): 7.3 (3.1) hr
F ([2]; Dog, oral 0.5 mg/kg vs IV […], mean (SD)): 76 (47) %
Vdss, mean ([2]; dog, in vivo): 0.8 L/kg
half-life ([2]; dog, in vivo): 7.3 h
bioavailability ([2]; dog, plasma, po, 0.5 mg/kg, single dose): 76%
NOEL [3, 17]: NOEL. 20 mg/kg/day. Dose-limiting
dose at which dose-limiting toxicity (mortality, physical signs) was observed [3, 17]: observed at 800 mg/kg/day
NOEL ([3]; dog, in vivo): 20 mg/kg/day
Safety margin (AUC24) at the NOEL over expected clinical exposure ([3]; dog, in vivo): approximately 30 fold
CL [4, 18]: 29 mL/min/kg
t½ [4, 18]: 0.8 h
F ([4]; Rat, oral 10 mg/kg vs IV 2 mg/kg, mean (SD)): 42 (13) %
Plasma clearance ([4]; rat, in vivo): 29 mL/min/kg
half-life ([4]; rat, in vivo): 0.8 h
bioavailability ([4]; rat, plasma, po, 10 mg/kg, single dose): 42%
t½ ([4]; rodents): 0.8 h
IC50 ([5]; depolarizing conditions): ~3.6 nM and 3.6 nM
IC50 ([5]; hyperpolarizing conditions): ~161 nM and 161 nM
AUC(0-t) [6]: 7.49 µM·h
Cmax ([7]; 1 mg, PN001/Part I, males 20-40 y, single 1 mg fed, read-out: Cmax): 56 nM
Cmax ([7]; 1 mg, PN001/Part I, males 20-40 y, single 1 mg, morning fasted, read-out: Cmax): 104 nM
Cmax ([7]; 1 mg, fasted, read-out: Cmax, mean): 104 nM
Cmax ([7]; 1 mg, fed (high-fat meal), read-out: Cmax, mean): 56 nM
Cmax ([7]; 2 mg, PN002/Part I, males 55-75 y, single 2 mg, morning fasted, read-out: Cmax): 198 nM
Cmax ([7]; 8 mg, PN002/Part I, males 55-75 y, single 8 mg, morning fasted, read-out: Cmax): 708 nM
Cmax ([7]; 8 mg, single 8 mg CX-8998, PN002/Part I middle-aged and elderly males, read-out: Cmax): 708 nM
AUC(0-t) ([7]; 12 mg, PN002 Part 2, 12 mg, 1 dose): 4.99 µM·h
Cmax ([7]; 12 mg, PN002 Part 2, 12 mg, 1 dose, read-out: Cmax): 798 nM
AUC(0-t) ([7]; 16 mg, PN001 Part 1, 16 mg, 1 dose): 8.52 µM·h
Cmax ([7]; 18 mg, PN001/Part II, males 22-39 y, single 18 mg, morning fasted, read-out: Cmax): 1180 nM
AUC(0-t) ([7]; 18 mg, PN001 Part 2, 18 mg, 1 dose): 9.93 µM·h
Cmax ([7]; 18 mg, PN001 Part 2, 18 mg, 1 dose, read-out: Cmax): 1180 nM
Cmax ([7]; 18 mg, PN002/Part I, males 55-75 y, single 18 mg, morning fasted, read-out: Cmax): 1330 nM
AUC(0-t) ([7]; 18 mg, PN002 Part 1, 18 mg, 1 dose): 9.44 µM·h
Cmax ([7]; 18 mg, PN002 Part 1, 18 mg, 1 dose, read-out: Cmax): 1330 nM
Cmax ([7]; 24 mg, PN001/Part I, males 20-40 y, single 24 mg evening, read-out: Cmax): 1370 nM
AUC(0-t) ([7]; Average of studies, dose 16, 1 dose): 8.22 µM·h
Cmax ([7]; Average of studies, dose 16, 1 dose, read-out: Cmax): 1060 nM
Mean Cmax higher than in younger male subjects ([7]; middle-aged and elderly female, 8 mg): 6%
Mean Cmax higher than in younger male subjects ([7]; middle-aged and elderly male, 8 mg): 28%
Reduction in Cmax with food ([7]; vs fasted state): 45%
half-life ([8]; female, 5 mg/kg/day): 1.6 h
half-life ([8]; female, 100 mg/kg/day): 9.25 h
half-life ([8]; female, 300 mg/kg/day): 5.28 h
half-life ([8]; male, 15 mg/kg/day): 2.87 h
Tmax ([8]; male, 100 mg/kg/day): 2 h
half-life ([8]; male, 100 mg/kg/day): 3.72 h
half-life ([8]; male, 300 mg/kg/day): 5.68 h
Time-dependent inhibition of CYP3A4 or CYP2B6 [9]: insignificant
Css, estimated mean ([10]; middle-aged and elderly men): 874 nM
Steady-state AUC24, estimated mean ([10]; middle-aged and elderly men): 20.976 µM·h
Css, estimated mean ([10]; middle-aged and elderly women): 981 nM
Steady-state AUC24, estimated mean ([10]; middle-aged and elderly women): 23.544 µM·h
Css, estimated mean ([10]; young men): 583 nM
Steady-state AUC24, estimated mean ([10]; young men): 13.992 µM·h
Cu, ss_adj ([10]; adjusted for fu and potency, 10 mg BID): 2.3 nM
Cp, ss [10, 19]: 583 nM
Cu, ss [10, 19]: 2.3 nM
fraction unbound ([11]; human plasma, read-out: Human-free fraction): 0.004
fraction unbound ([11]; human plasma, read-out: In vitro plasma protein binding (converted)): ~0.004
fraction unbound ([11]; humans, read-out: free fraction): 0.004
P-glycoprotein substrate or inhibitor activity [12]: did not demonstrate any activity as a substrate or inhibitor
AUC728, Mean ([13]; IR Formulation): 7435 nMh
AUC728 ([13]; IR Formulation): 9175 nMh and 4786 nMh and 6911 nMh and 7288 nMh and 4596 nMh and 7940 nMh and 13892 nMh and 7217 nMh and 7305 nMh and 9382 nMh and 5463 nMh and 6845 nMh and 5185 nMh and 8628 nMh and 6910 nMh
AUC728, Mean ([13]; MR1 Formulation): 7526 nMh
AUC728 ([13]; MR1 Formulation): 9494 nMh and 4762 nMh and 7028 nMh and 7387 nMh and 4102 nMh and 8335 nMh and 13265 nMh and 8177 nMh and 6271 nMh and 9351 nMh and 5184 nMh and 7996 nMh and 5635 nMh and 8950 nMh and 7114 nMh
AUC728, Mean ([13]; MR2 Formulation): 7119 nMh
AUC728 ([13]; MR2 Formulation): 11133 nMh and 3862 nMh and 8064 nMh and 6813 nMh and 4833 nMh and 8180 nMh and 10810 nMh and 6034 nMh and 6730 nMh and 10165 nMh and 4975 nMh and 6136 nMh and 3085 nMh and 10051 nMh and 5947 nMh
AUC72hr ([13]; following a single 8 mg dose of MR1 CX-8998): 7530
AUC72hr ([13]; following a single 8 mg dose of MR2 CX-8998): 7125
CL [14, 20]: 15.9 (2.5) mL/min/kg
t½ [14, 20]: 1.3 (0.3) hr
F ([14]; Monkey, oral 20 mg/kg vs IV 2 mg/kg, mean (SD)): 2.8 (10.) %
Plasma clearance ([14]; rhesus monkey, in vivo): 16 mL/min/kg
Vdss, mean ([14]; rhesus monkey, in vivo): 0.9 L/kg
half-life ([14]; rhesus monkey, in vivo): 1.3 h
Inhibition of BCRP transport [15]: 57%
Day 90 Free Margin for AUC24 at NOAEL for Dog 90-Day Toxicology ([16]; Female dogs vs human 10 mg BID): 19
Day 90 Free Margin for Cmax at NOAEL for Dog 90-Day Toxicology ([16]; Female dogs vs human 10 mg BID (fed)): 57
Day 90 Free Plasma AUC24 at NOAEL for Dog 90-Day Toxicology ([16]; Female dogs): 1089 nM · hr
Day 90 Free Margin for AUC24 at NOAEL for Rat 90-Day Toxicology ([16]; Female rats vs human 10 mg BID): 81
Day 90 Free Margin for Cmax at NOAEL for Rat 90-Day Toxicology ([16]; Female rats vs human 10 mg BID (fed)): 184
Day 90 Free Plasma AUC24 at NOAEL for Rat 90-Day Toxicology ([16]; Female rats): 4528 nM · hr
Day 90 Free Margin for AUC24 at NOAEL for Dog 90-Day Toxicology ([16]; Male dogs vs human 10 mg BID): 18
Day 90 Free Margin for Cmax at NOAEL for Dog 90-Day Toxicology ([16]; Male dogs vs human 10 mg BID (fed)): 51
Day 90 Free Plasma AUC24 at NOAEL for Dog 90-Day Toxicology ([16]; Male dogs): 1005 nM · hr
Day 90 Free Margin for AUC24 at NOAEL for Rat 90-Day Toxicology ([16]; Male rats vs human 10 mg BID): 37
Day 90 Free Margin for Cmax at NOAEL for Rat 90-Day Toxicology ([16]; Male rats vs human 10 mg BID (fed)): 78
Day 90 Free Plasma AUC24 at NOAEL for Rat 90-Day Toxicology ([16]; Male rats): 2088 nM · hr
NOAEL exposure vs intended free clinical exposures ([16]; beagle, dog): approximately 20 times
Exposure without effects on fertility or reproduction vs intended clinical free AUC ([16]; rat): > 100 times
NOAEL exposure vs intended free clinical exposures ([16]; rat): at least 39 times
